The record followed here is paper PMC10965220 (Bioorganic chemistry, 2022).

One assay deals with T1, human COX-1 (Ovis aries, UniProt P05979).
T1 sequence (P05979 25-600): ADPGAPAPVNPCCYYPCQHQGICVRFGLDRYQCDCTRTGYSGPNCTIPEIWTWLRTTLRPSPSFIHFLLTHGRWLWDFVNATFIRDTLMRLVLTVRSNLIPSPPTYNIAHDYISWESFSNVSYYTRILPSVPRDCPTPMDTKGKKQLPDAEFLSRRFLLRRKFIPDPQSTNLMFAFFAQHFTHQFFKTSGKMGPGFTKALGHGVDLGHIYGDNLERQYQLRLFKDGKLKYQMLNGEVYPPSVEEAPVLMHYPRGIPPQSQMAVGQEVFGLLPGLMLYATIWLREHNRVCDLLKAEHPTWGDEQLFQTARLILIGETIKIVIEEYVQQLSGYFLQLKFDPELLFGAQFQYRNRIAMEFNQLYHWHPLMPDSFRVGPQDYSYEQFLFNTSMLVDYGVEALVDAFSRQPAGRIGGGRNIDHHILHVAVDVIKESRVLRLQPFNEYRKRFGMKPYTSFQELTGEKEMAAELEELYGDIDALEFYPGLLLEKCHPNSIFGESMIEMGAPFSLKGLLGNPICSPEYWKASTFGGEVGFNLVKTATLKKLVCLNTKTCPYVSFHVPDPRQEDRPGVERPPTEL
The assay is described as follows: In vitro COX-1 inhibition assay.

The next assay concerns the target T2, human COX-2 (Homo sapiens, UniProt P35354).
T2 sequence (P35354 18-604): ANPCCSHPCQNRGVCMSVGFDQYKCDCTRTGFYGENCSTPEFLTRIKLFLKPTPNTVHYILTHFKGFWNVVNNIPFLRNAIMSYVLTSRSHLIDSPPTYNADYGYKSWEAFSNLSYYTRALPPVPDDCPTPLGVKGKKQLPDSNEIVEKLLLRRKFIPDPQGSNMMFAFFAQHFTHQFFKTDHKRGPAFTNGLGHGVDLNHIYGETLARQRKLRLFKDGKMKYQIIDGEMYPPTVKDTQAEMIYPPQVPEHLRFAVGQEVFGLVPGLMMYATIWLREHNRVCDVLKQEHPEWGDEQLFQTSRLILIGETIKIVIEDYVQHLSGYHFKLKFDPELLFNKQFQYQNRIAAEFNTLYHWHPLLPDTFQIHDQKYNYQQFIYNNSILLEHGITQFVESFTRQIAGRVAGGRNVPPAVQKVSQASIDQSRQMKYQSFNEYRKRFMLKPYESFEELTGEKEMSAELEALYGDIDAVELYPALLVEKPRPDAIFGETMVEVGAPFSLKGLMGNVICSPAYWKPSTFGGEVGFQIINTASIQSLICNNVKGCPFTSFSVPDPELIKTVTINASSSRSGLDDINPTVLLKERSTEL
Kind of assay: In vitro COX-2 inhibition assay. Particulars: for COX-2 SI: Selectivity index = COX-1 IC50/COX-2 IC50.

Assay [1] concerns LPS-induced ROS production in RAW 264.7 cells. The assay is described as follows: ROS production in LPS-activated RAW 264.7 macrophages. It counts as cell-based, murine. Particulars: vs reference celecoxib.
The subject of assay [2] is LPS-induced NO production in RAW 264.7 cells. The assay is described as follows: NO production in LPS-activated RAW 264.7 macrophages. As to conditions: vs reference celecoxib. It counts as cell-based, murine.

Molecules are shown by their SMILES.

Take `Nn1c(SCC(=O)Nc2cccc(Br)c2)nnc1-c1ccc(NC(=O)c2cccnc2)cc1` [Compound 11f, N-(4-(4-Amino-5-((2-((3-bromophenyl)amino)-2-oxoethyl)thio)-4H-1,2,4-triazol-3-yl)phenyl) nicotinamide]: the midpoint of inhibition on human COX-1, the IC50, lay at 9.5 ± 0.99 µM. On human COX-2, the IC50 came to 0.09 ± 0.01 µM and the “COX-2 SI” value was determined as 105.56.

Regarding `Nn1c(SCC(=O)Nc2ccccc2Cl)nnc1-c1ccc(NC(=O)c2cccnc2)cc1` [Compound 11g, N-(4-(4-Amino-5-((2-((2-chlorophenyl)amino)-2-oxoethyl)thio)-4H-1,2,4-triazol-3-yl)phenyl) nicotinamide], at human COX-1, 10.5 ± 2.25 µM corresponded to half-maximal inhibition (IC50). At human COX-2, the midpoint of inhibition, the IC50, lay at 0.08 ± 0.01 µM and the “COX-2 SI” value amounted to 131.25.

With `O=C(CSc1nnc(-c2ccc(NC(=O)c3cccnc3)cc2)o1)Nc1cccc(Br)c1` [Compound 8f, N-(4-(5-((2-((3-Bromophenyl)amino)-2-oxoethyl)thio)-1,3,4-oxadiazol-2-yl)phenyl)nicotinamide], the figures for the IC50 against human COX-1 and against human COX-2 were 10 ± 3.17 µM and 0.08 ± 0.01 µM, respectively. The “COX-2 SI” value at human COX-2 is given as 125.

`O=C(Nc1ccc(-c2n[nH]c(=S)n2N=Cc2c[nH]c3ccccc23)cc1)c1cccnc1` [Compound 10b, N-(4-(4-(((1H-Indol-3-yl)methylene)amino)-5-thioxo-4,5-dihydro-1H-1,2,4-triazol-3-yl)phenyl) nicotinamide] registered an IC50 on human COX-1 of 8 ± 0.14 µM. On human COX-2, the IC50 stood at 0.11 ± 0.01 µM and the “COX-2 SI” value was 72.73.

In the case of `O=C(CSc1nnc(-c2ccc(NC(=O)c3cccnc3)cc2)o1)Nc1ccc([N+](=O)[O-])cc1` [Compound 8b, N-(4-(5-((2-((4-Nitrophenyl)amino)-2-oxoethyl)thio)-1,3,4-oxadiazol-2-yl)phenyl)nicotinamide], at human COX-1, the IC50 turned out to be 8.5 ± 0.6 µM. For the same compound, in assay [1], the “fold lower ROS IC50 than celecoxib” value is “about 476 fold”. For the same compound, at human COX-2, 0.14 ± 0.01 µM corresponded to half-maximal inhibition (IC50) and the “COX-2 SI” value worked out at 60.71. Besides, in assay [2], the “fold better NO IC50 than celecoxib” value is listed as “more than 41 fold”.

As for `Cc1ccc(C)c(NC(=O)CSc2nnc(-c3ccc(NC(=O)c4cccnc4)cc3)o2)c1` [Compound 8d, N-(4-(5-((2-((2,5-Dimethylphenyl)amino)-2-oxoethyl)thio)-1,3,4-oxadiazol-2-yl)phenyl) nicotinamide], at human COX-1, the IC50 came out at 10.5 ± 2.98 µM. Further, on human COX-2, the IC50 turned out to be 0.16 ± 0.04 µM and the “COX-2 SI” value turned out to be 65.63.

`Cc1ccc(C=Nn2c(-c3ccc(NC(=O)c4cccnc4)cc3)n[nH]c2=S)cc1` [Compound 10a, N-(4-(4-((4-Methylbenzylidene)amino)-5-thioxo-4,5-dihydro-1H-1,2,4-triazol-3-yl)phenyl) nicotinamide]: the IC50 on human COX-1 amounted to 11.5 ± 0.98 µM; against human COX-2 it was 0.11 ± 0.02 µM. For the same compound, the “COX-2 SI” value at human COX-2 came out at 104.55.

On to `Nn1c(SCC(=O)Nc2ccc([N+](=O)[O-])cc2)nnc1-c1ccc(NC(=O)c2cccnc2)cc1` [Compound 11b, N-(4-(4-Amino-5-((2-((4-nitrophenyl)amino)-2-oxoethyl)thio)-4H-1,2,4-triazol-3-yl)phenyl) nicotinamide], for which, on human COX-1, half-maximal inhibition (IC50) required 11.5 ± 1.41 µM. Moreover, at human COX-2, the IC50 turned out to be 0.08 ± 0.01 µM and the “COX-2 SI” value is reported as 143.75.

On to `O=C(CSc1nnc(-c2ccc(NC(=O)c3cccnc3)cc2)o1)Nc1ccc(F)cc1` [Compound 8e, N-(4-(5-((2-((4-Fluorophenyl)amino)-2-oxoethyl)thio)-1,3,4-oxadiazol-2-yl)phenyl)nicotinamide], for which, on human COX-1, 7.5 ± 0.75 µM corresponded to half-maximal inhibition (IC50). For the same compound, on human COX-2, inhibition was half-maximal at 0.11 ± 0.01 µM (IC50) and the “COX-2 SI” value was 68.18.

Take `Cc1ccc(NC(=O)CSc2nnc(-c3ccc(NC(=O)c4cccnc4)cc3)n2N)cc1` [Compound 11c, N-(4-(4-Amino-5-((2-((4-methylphenyl)amino)-2-oxoethyl)thio)-4H-1,2,4-triazol-3-yl)phenyl) nicotinamide]: the half-maximal inhibitory concentration (IC50) against human COX-1 was determined as 13.5 ± 1.63 µM; at human COX-2 it was 0.04 ± 0.01 µM. For the same compound, the “COX-2 SI” value at human COX-2 was found to be 337.5.

Turning to `CC(=O)c1ccc(NC(=O)CSc2nnc(-c3ccc(NC(=O)c4cccnc4)cc3)n2N)cc1` [Compound 11a, N-(4-(5-((2-((4-Acetylphenyl)amino)-2-oxoethyl)thio)-4-amino-4H-1,2,4-triazol-3-yl)phenyl) nicotinamide], at human COX-1, the IC50 stood at 8.5 ± 0.62 µM. At human COX-2, the IC50 was 0.11 ± 0.01 µM and the “COX-2 SI” value is on record as 77.27.

In the case of `CC(=O)c1ccc(NC(=O)CSc2nnc(-c3ccc(NC(=O)c4cccnc4)cc3)o2)cc1` [Compound 8a, N-(4-(5-((2-((4-Acetylphenyl)amino)-2-oxoethyl)thio)-1,3,4-oxadiazol-2-yl)phenyl)nicotinamide], the IC50 on human COX-1 is 11.5 ± 1.01 µM; at human COX-2, 0.05 ± 0.01 µM. The “COX-2 SI” value on human COX-2 is given as 230.

The compound `Nn1c(SCC(=O)Nc2ccc(F)cc2)nnc1-c1ccc(NC(=O)c2cccnc2)cc1` [Compound 11e, N-(4-(4-Amino-5-((2-((4-fluorophenyl)amino)-2-oxoethyl)thio)-4H-1,2,4-triazol-3-yl)phenyl) nicotinamide] came in with an IC50 against human COX-1 of 10 ± 2.34 µM. For the same compound, on human COX-2, the IC50 worked out at 0.06 ± 0.01 µM and the “COX-2 SI” value was 166.67.

As to `Cc1ccc(NC(=O)CSc2nnc(-c3ccc(NC(=O)c4cccnc4)cc3)o2)cc1` [Compound 8c, N-(4-(5-((2-((4-Methylphenyl)amino)-2-oxoethyl)thio)-1,3,4-oxadiazol-2-yl)phenyl)nicotinamide], the IC50 on human COX-1 stood at 11.5 ± 0.85 µM. Besides, on human COX-2, the IC50 was found to be 0.05 ± 0.01 µM and the “COX-2 SI” value turned out to be 230.

`O=C(CSc1nnc(-c2ccc(NC(=O)c3cccnc3)cc2)o1)Nc1ccccc1Cl` [Compound 8g, N-(4-(5-((2-((2-Chlorophenyl)amino)-2-oxoethyl)thio)-1,3,4-oxadiazol-2-yl)phenyl)nicotinamide] gave an IC50 against human COX-1 of 8.5 ± 0.71 µM. Further, on human COX-2, half-maximal inhibition (IC50) was put at 0.05 ± 0.01 µM and the “COX-2 SI” value was found to be 170.

Turning to `Cc1ccc(C)c(NC(=O)CSc2nnc(-c3ccc(NC(=O)c4cccnc4)cc3)n2N)c1` [Compound 11d, N-(4-(4-Amino-5-((2-((2,5-dimethylphenyl)amino)-2-oxoethyl)thio)-4H-1,2,4-triazol-3-yl)phenyl) nicotinamide], on human COX-1, 10.5 ± 3.03 µM corresponded to half-maximal inhibition (IC50). Further, on human COX-2, the IC50 was found to be 0.08 ± 0.01 µM and the “COX-2 SI” value is listed as 131.25.

As a reminder, the IC50 is the concentration at which inhibition is half-maximal. A lower IC50 goes with higher potency.
